From a melting point compilation (Tetko et al.; mined from patent text by program, amines drawn as free bases though some values may be those of a salt)

SMILES	melting point [°C]
O=C1NC(=S)SC1=C(c1ccccc1)c1ccccc1	192 to 194
COc1cc(Nc2c(C#N)cnc3cc(/C=C/CCCN4CCOCC4)c(OC)cc23)c(Cl)cc1Cl	110 to 112
BrC=C(c1ccccc1)c1ccccc1	45
N#Cc1c(Cl)c2ccccc2[nH]c1=O	> 250
O=C1c2ccc(C#Cc3cccc4ccccc34)cc2C(=O)N1c1ccccc1	176 to 178
CCSc1ccc(Oc2ccc(C(=O)c3ccccc3)cc2)nc1C#N	88 to 90
CC(C)(C)C(NC(=O)Cc1ccc(Cl)cc1)NC(=NC#N)Nc1cccc2cnsc12 (configuration not stated)	135 to 137
Oc1ccc(OC[C@@H](O)CNCCc2ccc(-n3c(CCC4CCCC4)nc4cccnc43)cc2)cc1	59 to 61
CN(C)c1ccc(S(=O)CCCCCC(=O)NO)cc1 (configuration not stated)	95 to 97
CCOP(=O)(OCC)N1CC2(C(=O)OC)COc3cc(C(F)(F)F)ccc3C2=N1 (configuration not stated)	85 to 86
Cc1ccc(C(N)=S)cc1C	120 to 125
COC(=O)N1C(=S)NC(C)=C(C(=O)OC(C)C)C1c1cccc([N+](=O)[O-])c1 (configuration not stated)	130 to 132
CCCc1nc(OC)c(NC(=O)N2CCN(c3cccc(O)c3)CC2)cc1C	153 to 155
CSC1CC(=O)N1CC(=O)O (single isomer, unassigned; (+))	117 to 118
Nc1nc(N)nc(N2CCC3(CC2)OCCO3)n1	209 to 211
CS(=O)(=O)c1ccc(-c2c(-c3ccccc3)[nH]c3ccc(Cl)cc23)cc1	273 to 275
O=C(Oc1ccc(Oc2ccccc2)cc1)Oc1ccc([N+](=O)[O-])cc1	113 to 115
N=C(c1cc(Cl)ccc1N)C1CCCCC1	65
O=C1Nc2ccc(F)cc2C(CCc2ccccc2)(C(F)(F)F)N1 (racemic)	98
CC(N/C(C#N)=C(\N)C#N)c1ccc(Cl)cc1 (configuration not stated)	145 to 146
CCOC(=O)C(C#N)=Cc1cc(Oc2c(Cl)cc(C(F)(F)F)cc2Cl)ccc1[N+](=O)[O-]	99
O=C(O)CCOc1cccc2c1CCc1sc(SCC(c3ccccc3)c3ccccc3)nc1-2	123 to 125
O=C(Nc1ccc(C(=O)N2Cc3cccn3Cc3ccccc32)cc1)c1ccccc1Cl	228 to 230
Nc1cccc(C(=O)c2cccc3ccccc23)c1O	211
O=C(O)Cc1cc(=O)[nH]c2ccccc12	213 to 215
COc1ccc(N2CCN(c3c(C)c(C)c4c(c3C)C(c3ccc(F)nc3)C(C)(C)O4)CC2)cc1 (configuration not stated)	87 to 88

SMILES	melting point [°C]
Cc1cc(C)c(S(=O)(=O)OCCC2CCN(S(=O)(=O)c3c(C)cc(C)cc3C)CC2)c(C)c1	93.5 to 94
O=C(NCCCc1ccncc1)N(CCCC12CC3CC(CC(C3)C1)C2)CC(F)(F)F	88.9 to 90
CNC(=O)c1c(I)c(N)c(I)c(N(CCO)C(C)=O)c1I	197
CC1=CC(OCc2ccccc2)(OC(=O)c2ccc(Br)c(OCCn3cnnn3)c2C)N(C)N1 (configuration not stated)	122 to 125
COC(=O)Nc1c(C#N)cnn1-c1c(Cl)cc(SC(F)(F)F)cc1Cl	145
COc1ccc(Oc2c(Br)cc(C#N)cc2Br)cc1Cc1ccc(=O)[nH]n1	214 to 216
CN1C(=S)COC1=Nc1cccc(C(F)(F)F)c1	84 to 86
O=C1CCC(N2C(=O)c3cccc(Nc4ccccc4)c3C2=O)C(=O)N1 (configuration not stated)	214 to 216
C#Cc1ccc2c(c1)C(c1ccccn1)=NCc1c(C(=O)N(C)C)ncn1-2	193 to 194
CS(=O)(=O)Nc1cc2occ(C(=O)Nc3nnn[nH]3)c(=O)c2cc1Oc1ccccc1	> 250
Cc1ncc(CO)c2c1OC(C(F)(F)F)C(C(=O)O)=C2 (configuration not stated)	76.1 to 80.1
CC=CCN(Cc1cc(C)ccc1C)c1ncnc2c1ncn2C1OC(CO)C(O)C1O (configuration not stated)	125 to 127
NC(=O)N(O)Cc1ccc(C(O)C#Cc2cccc(Cl)c2)cc1 (configuration not stated)	118 to 119
Cc1nc(N2CCC(Cc3ccc(F)cc3)C2=O)sc1C(=O)NCc1cccnc1 (configuration not stated)	169 to 170
Cc1cc(C)c(Nc2ccnc(Nc3ccc(C#N)cc3)n2)c(C)c1	217 to 218
Cc1cc(-n2c(Cl)cnc2C)cc2ccc(=O)[nH]c12	258 to 261
CSc1ccc(C(C#N)=NO)cc1	132 to 133
CC(=O)c1c(O)cc(C)cc1O	146 to 148
CC(C)(C)N1CC(c2ccc([N+](=O)[O-])cc2)OC1=O (configuration not stated)	123 to 125
O=c1c(-c2ccccc2)cc(CO)c2n1CCc1ccsc1-2	199 to 200
Nc1c(Cl)cc(CO)cc1Cl	110 to 112
Cc1cc(C)cc(Sc2c(C(C)C)c(=O)[nH]c(=O)n2CC#Cc2ccccc2)c1	113 to 115
CNC1=NS(=O)(=O)N=C1NCCSCc1ccccn1	168 to 171
NC(=O)[C@@H]1[C@H](Nc2c(Br)cnc3[nH]c(-c4ccc(N5CCOCC5)nc4)nc23)[C@H]2C=C[C@@H]1C2	288 to 290
COc1cc(OC)c(F)c(N2Cc3cnc(NC[C@H](O)[C@@H](O)CO)nc3N(C3CCCC3)C2=O)c1	86 to 88
C=CC(=O)NCCCCCCCCOc1ccccc1	45 to 47

SMILES	melting point [°C]
CC(=O)c1cc(Br)c(OCCCBr)c(Br)c1	87 to 88
Cn1cc(C(N)=O)c(=O)c2ccc(F)cc21	317 to 318
COC(=O)c1cccc(-c2ncc(O)cn2)c1	219 to 223
Cc1ccc(S(=O)(=O)Nc2ccc(C#N)cc2C#N)cc1	200 to 206
CCc1nn(C2CCCCC2)c2cc(C(=O)O)ccc12	196 to 197
Cc1ccccc1C1CC(=O)c2c(C)n[nH]c2C1 (configuration not stated)	205 to 207
O=C(Nc1cccc(S(=O)(=O)CCO)c1)c1cnn2c(C(F)(F)F)cc(-c3ccc(C(F)(F)F)cc3)nc12	237
CCC(C)Oc1ccccc1-c1nc2ccc(C(=O)O)cc2c(=O)[nH]1 (configuration not stated)	242 to 244
CSCCNC(N)=Nc1ccccc1N1CCOCC1	115 to 116
COC12CCCCC1CC(c1ccccc1)=NN2S(=O)(=O)c1ccc(C)cc1 (configuration not stated)	112 to 114
CCCc1nc(Cl)c(C(=O)O)n1Cc1ccc(C2(C(=O)O)CC=CC2)s1	170 to 172
CNC(=O)c1[nH]c(=O)[nH]c1C	> 300
CC(C)(C)OC(=O)NNC(=O)N1CCN(NC(=O)OCc2ccccc2)C1=O	195 to 198
CC(=O)ONC(=O)N1CCC(=Cc2cc(C(C)(C)C)c(O)c(C(C)(C)C)c2)C1=O	165 to 166
Cc1c(OCc2ccccc2)c(=O)ccn1CCOC(=O)C(C)(C)C	103 to 106
CC(C)NC(=O)N(Nc1cccc(Cl)c1Cl)C1=CCCN1	109 to 111
O=C1Cc2ccc3ccccc3c2OC1C(=O)c1cccc(Cl)c1 (configuration not stated)	206 to 208
O=C1c2cc3nnn(Cn4cc(Br)cn4)c(=O)c3cc2OC2CCCN12 (configuration not stated)	180 to 181
C=C(C)C(=O)Oc1cccc(-c2cccc(OC(=O)C(=C)C)c2)c1	70
CCCN1CCC(c2ccccc2)=C(C(=O)NOCc2ccccc2)C1	143 to 145
Cc1c(C2=CCC(c3ccccc3)(N(C)C)CC2)[nH]c2ccc(F)cc12 (configuration not stated)	171 to 175
CC(C)(C)OC(=O)N1CC(CCl)c2c1ccc1cc(C#N)ccc21 (configuration not stated)	171 to 172
CNC(=O)c1ccccc1Nc1nc(Nc2cc3c(cc2OC)C(=O)N(C)CCC3)ncc1Cl	152 to 154
N#Cc1c(N2CCCC2)cc(-c2ccc(Cl)cc2)c2c1Cc1ccccc1-2	197 to 199
CCn1c(=O)sc2cc(N)ccc21	132 to 133
CC(C)(C)c1ccc(NC(Nc2ccc(C(C)(C)C)cc2)Nc2ccc(C(C)(C)C)cc2)cc1	157 to 158

SMILES	melting point [°C]
C[C@@H](n1cnc2cc(C#N)ccc2c1=O)[C@](O)(Cn1cncn1)c1ccc(F)cc1F	168 to 169
COc1ccc(N2CCN(c3c(C)c(C)c4c(c3C)C(N3CCCC3)C(C)(C)O4)CC2)cc1 (configuration not stated)	124 to 126
Cc1cccc(SCC(=O)C23CC4CC(CC(C4)C2)C3)n1	116
CCCCCCC(C)(C)c1ccc(C2CCCC(=O)C2)c(O)c1 (configuration not stated)	87
CCNC(=O)/C=C/c1cnoc1-c1ccccc1	156 to 157
O=C(O)C1Cc2cccc([N+](=O)[O-])c2C1 (configuration not stated)	140
CNC(=C[N+](=O)[O-])NCCSCc1cc(OC)ccn1	107 to 108
CN(C)CC1=NC(O)(CCl)CS1 (configuration not stated)	90 to 92
Cc1ccc(-c2cc(CNC(CO)CO)c(=O)n(CC(C)C)n2)cc1	134 to 135
CCC(C1OC(=O)c2ccccc21)[N+](=O)[O-] (configuration not stated)	90 to 92
O=C(NC(CS)Cc1ccccc1)N1CCOCC1 (single isomer, unassigned; (+))	84
CCCC(=NOc1ccc(Cl)cc1)c1cc(Cl)ccc1NS(=O)(=O)C(F)(F)F	62.5 to 64.5
COc1cc2c(cc1Nc1ncc(Cl)c(Nc3ccc(N4CCOCC4)cc3OC)n1)CCN(CC(=O)N(C)C)CC2	67 to 76
CCOC(=O)CCNCC(O)COc1cccc(C)c1 (configuration not stated)	57
CS(=O)(=O)Nc1cccc(Nc2nc(N3CCCC3)c3nc[nH]c3n2)c1	164 to 168
Cc1c(NN)nc(N)nc1-c1ccco1	155 to 160
CCCCCCCCCCCCCCCCCCOCC(COC(c1ccccc1)(c1ccccc1)c1ccccc1)OC(=O)N1CCOCC1 (configuration not stated)	78 to 79
CNS(=O)(=O)c1cc(C(=O)NCC2CCCN2CC2CC2)c(OC)cc1N (configuration not stated)	173 to 174
COC(C)(C)c1cccc(Cn2nnc3c(-c4ccc(C)o4)nc(N)nc32)n1	178
CCCNC(=O)c1cnc2cc(C)ccn2c1=O	194 to 196
O=C1CCCCc2cc(Cl)c(Cl)cc21	> 250
CCCCCCC1C(=O)NC(C(=O)SCCNC(C)=O)(C(O)C2C=CCCC2)C1(C)O (configuration not stated)	82
CON=Cc1ccc2c(c1)ncn2-c1cccc(-c2ncccn2)c1	158 to 159
CCOC(=O)c1cc(C(=O)OCC)c(N)[nH]1	147 to 149
